US20100161239A1, “QU[…]” (VICRO BVBA, priority 2003, published 2010)

Columns and labels:
[1] = test system: one HIV-1 sample; test: Phenotypic antiviral experiment (as described in WO97/27480), fold change in IC50/EC50 relative to reference wild-type virus; assay type: cell-based; conditions: fold change in IC50 or EC50 relative to reference wild-type virus
Experimental: (§1) For the purposes of the invention, the mutations identified should be associated with resistance or susceptibility to drug therapy, for example an antiretroviral drug. The degree to which a particular mutation pattern may affect resistance may be determined by one of skill in the art, for example, using the phenotypic resistance monitoring assay such as, the ANTIVIROGRAM® (Virco, Belgium) (see WO97/27480). In this methodology, resistance is determined with respect to a laboratory reference strain HIVLAI/IIIB. The difference in IC50 (the concentration of drug required to reduce the virus' growth in cell culture by 50%) between the patient sample and the reference viral strain is determined as a quotient. This fold change in IC50 is reported and indicative of the resistance profile of a certain drug. Based on the changes in IC50, cut-off values have been established to distinguish a sample from being sensitive or resistant to a certain drug.
The results were expressed in FR, or fold change in IC50 or EC50, relative to reference wild-type virus, which is the drug concentration at which 50% of the enzyme activity is inhibited, and is expressed in μM units. The FR cutoffs values for normal susceptible ranges were 8, 10, and 6, for nevirapine, delavirdine, and efavirenz, respectively.
The phenotypic antiviral experiment was taken as the gold-standard by the inventors. Said phenotypic antiviral experiment was performed as described in WO97/27480.

[2] = test system: HIV virus strains 1-4; test: Measured phenotype (pFR = -log fold resistance), censored values, genotype/phenotype dataset; assay type: cell-based; conditions: pFR = -log(FR)
Experimental: as §1
The phenotypes are presented as pFR values, where pFR is equal to −log(FR), where FR denotes the Fold Resistance. Negative pFR values thus denote resistance and positive values denote hyper-susceptibility. For example, a pFR value of −1.0 is equal to 10-fold resistance.
The used dataset consists of a set of matching genotype/phenotype measurements with possible multiple phenotype measurements per genotype. The mutations are defined relative to HXB2 at amino acid level. The phenotypes are presented as pFR values, which is equal to −log(FR), where FR denotes the Fold Resistance.
In this example, the method developed by the inventors to deal with censored values was applied for the drug amprenavir. Firstly, a linear regression model without censored values was calculated, see the values ‘APV_pFR’ for iteration 0 in the Tables 18-21 below. The phenotypic measured value is <−2.083062017 for Virus strain 1, for the first iteration, the value V0 is equal to the measured phenotype value APV_pFR, but the censor is considered as ‘=’. This was followed by iteration nr. 1. Once the values were obtained from iteration 1, the inventors compared the prediction value P, e.g. for Virus strain 1, −2.362076895 with the phenotypic measured value <−2.083062017. For virus strains 1, 2 and 3 below, the measured values have a censor ‘<’. For virus strains 4, the measured value has a censor ‘>’. The scenarios established by the inventors, when the case was ‘<’-censor, and when the case was ‘>’-censor, were applied. New linear regression models were calculated and for the censored values in the linear regression model, either the data-points from the training set were removed, as for virus strains 1, 2 and for virus strain 4 (iteration 2 and 3 only), or those data-points were used instead of the censored phenotypes measurement, as illustrated for virus strain 3 and for virus strain 4 (only iteration 1). The procedure was reiterated until the prediction converged.

Cc1ccnc2c1NC(=O)c1cccnc1N2C1CC1 [Nevirapine]
FR (phenotypic antiviral experiment) [1]: >89

CC(C)CN(C[C@@H](O)[C@H](Cc1ccccc1)NC(=O)O[C@H]1CCOC1)S(=O)(=O)c1ccc(N)cc1 [APV, amprenavir]
APV_pFR (phenotypic measured value) ([2]; Virus strain 1, censor '<'): < −2.083 | APV_pFR (phenotypic measured value) ([2]; Virus strain 1, censor '<', listed as amprenavir): < −2.083 | APV_pFR (phenotypic measured value) ([2]; Virus strain 2, censor '<'): < −1.909 | APV_pFR (phenotypic measured value) ([2]; Virus strain 3, censor '<'): <−1.957 | APV_pFR (phenotypic measured value) ([2]; Virus strain 4, censor '>'): > 0.5154

CC(C)Nc1cccnc1N1CCN(C(=O)c2cc3cc(NS(C)(=O)=O)ccc3[nH]2)CC1 [delavirdine]
FR (phenotypic antiviral experiment) [1]: 3.7

O=C1Nc2ccc(Cl)cc2[C@@](C#CC2CC2)(C(F)(F)F)O1 [efavirenz]
FR (phenotypic antiviral experiment) [1]: 17.5
